Experimental data published in patent publication US9415114B2, “Conformations of divergent peptides with mineral binding affinity” (KAOHSIUNG MEDICAL UNIVERSITY, priority 2011, dated 2016).

Experiment: Hydroxylapatite column test (retention time on HAp column by HPLC)
Type: binding
Conditions: HAp column 0.7 x 5 cm, eluent 0.5 mM PBS pH 7.4, flow rate 0.25 mL/min, 220 nm; longer retention = higher mineral affinity
Experimental: Hydroxylapatite Column Test
Using the column which is filling hydroxylapatite particles to evaluate the affinity. The diameter and length of hydroxylapatite column are 0.7 and 5 cm, and experimented by High Performance Liquid Chromatography system. The elute solution is 0.5 mM PBS (pH 7.4), the flow rate is 0.25 mL/min, and the wavelength is 220 nm.

Row | Substance | retention time in hydroxylapatite column test
1 | H2N-(Gly)3-(Asp)3-NHAc [L1c] | 13.0 min
2 | HO-Gly-(Asp)6-NHAc [L1b] | 13.3 min
